The subject of data set [1] is STS. The settings on record: cited from earlier work.
For data set [2], the target named is T1, STS (Homo sapiens, UniProt P08842).
T1 construct: from tissue; host or cells: peripheral blood lymphocytes / mononuclear cells and breast tumour tissue of patients
T1 sequence (P08842 22-583): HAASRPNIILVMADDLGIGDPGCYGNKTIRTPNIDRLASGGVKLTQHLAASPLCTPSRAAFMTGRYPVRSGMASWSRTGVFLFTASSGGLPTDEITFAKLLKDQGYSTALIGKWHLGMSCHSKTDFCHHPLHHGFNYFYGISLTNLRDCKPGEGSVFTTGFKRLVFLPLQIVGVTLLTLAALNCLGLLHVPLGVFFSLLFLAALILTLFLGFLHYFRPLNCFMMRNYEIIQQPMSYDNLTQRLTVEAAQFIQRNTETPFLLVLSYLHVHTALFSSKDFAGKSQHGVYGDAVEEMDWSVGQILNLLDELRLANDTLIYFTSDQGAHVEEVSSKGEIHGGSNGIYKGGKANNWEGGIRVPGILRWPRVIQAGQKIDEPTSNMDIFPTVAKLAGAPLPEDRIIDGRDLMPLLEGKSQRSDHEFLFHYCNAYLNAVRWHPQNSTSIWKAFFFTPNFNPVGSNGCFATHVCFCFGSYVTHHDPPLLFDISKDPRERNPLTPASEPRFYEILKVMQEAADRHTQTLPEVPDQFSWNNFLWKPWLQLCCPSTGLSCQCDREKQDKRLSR
As to conditions: cited from earlier work.

The conditions of data set [3]: cited from earlier work; for no observed adverse effect level (NOAEL): rats, repeated oral dose.
The conditions of data set [4]: mice, 2000 mg/kg oral; cited from earlier work.
The nature of data set [5]: Oral administration to radiotelemetry instrumented dogs for seven days. As to conditions: highest tested dose, versus 80 mg oral dose in patients.
For data set [6] the following is noted: cited from earlier work.
For the next data set, the system named is isolated Purkinje fibres. As to conditions: only at a high concentration of 50 μM; cited from earlier work.
The conditions of data set [7]: dogs, 50, 250 and 1000 mg/kg/day; cited from earlier work.
The target of another data set is T2, hERG current (Homo sapiens, UniProt Q12809).
T2 construct: expressed in transfected cells; host or cells: HEK-293
The settings on record: transfected HEK-293 cells, in vitro; read-out: hERG current inhibition IC50; cited from earlier work. In general terms: The hERG channel carries a current that helps repolarise heart muscle cells.

For data set [8] the following is noted: cited from earlier work. This is another data set of the same source.
Data set [9] deals with carcinogen-induced mammary tumours. As to conditions: ovariectomized rats; cited from earlier work.
A short description of data set [10]: Repeated dose 1- and 6-month oral toxicity, rats. It counts as in vivo. As to conditions: versus 80 mg oral dose in patients. An excerpt:
However, there was a slightly lower exposure over time in rats compared to dogs. […] In vitro and in vivo metabolic studies have shown a large number of metabolites with qualitatively similar in vitro profiles in rats, dogs and man. […] Based on the pharmacokinetic parameters of BN83495, it is not expected to have any significant interaction with EGFR inhibitor/s which are metabolised predominantly by CYP3A4 (Roche products—Tarceva Product Information)
The no observed adverse effect level (NOAEL) was 200 mg/kg/day for males and 50 mg/kg/day for females.

For data set [11] the following is noted: rats, 2000 mg/kg oral; cited from earlier work.
For data set [12] the following is noted: cited from earlier work. This is another data set of the same source.
The conditions of data set [13]: cited from earlier work. The source holds these as a separate data set.
A further data set has as its target CYP2C19 (Homo sapiens, UniProt P33261). The settings on record: cited from earlier work.
For data set [14] the following is noted: female patients, 80 mg oral dose; cited from earlier work.
For data set [15] the following is noted: dogs, cited from earlier work.
The conditions of data set [16]: rats, single oral doses up to 1200 mg/kg; cited from earlier work.
The target in data set [17] is T1, STS. As to conditions: 40 mg dose; cited from earlier work.
[18] abbreviates: rats, 25, 50, 100 and 200 mg/kg/day.

Where two headings read alike, the source gives them in different places.

Sequence of CYP2C19 (P33261 whole entry): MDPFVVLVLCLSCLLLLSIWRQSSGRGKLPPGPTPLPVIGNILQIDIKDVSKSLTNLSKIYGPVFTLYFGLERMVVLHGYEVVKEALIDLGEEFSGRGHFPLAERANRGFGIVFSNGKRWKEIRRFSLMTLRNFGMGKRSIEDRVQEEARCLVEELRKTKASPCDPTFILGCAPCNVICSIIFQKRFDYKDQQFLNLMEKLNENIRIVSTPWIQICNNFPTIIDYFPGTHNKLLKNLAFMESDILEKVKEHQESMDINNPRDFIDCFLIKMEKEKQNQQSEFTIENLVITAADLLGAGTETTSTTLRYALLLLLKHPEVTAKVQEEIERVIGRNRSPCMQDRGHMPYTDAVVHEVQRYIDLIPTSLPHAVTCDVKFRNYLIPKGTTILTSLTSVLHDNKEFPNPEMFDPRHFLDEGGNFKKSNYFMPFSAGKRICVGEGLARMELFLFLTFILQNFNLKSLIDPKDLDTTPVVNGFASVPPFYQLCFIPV
T2 sequence (Q12809 whole entry): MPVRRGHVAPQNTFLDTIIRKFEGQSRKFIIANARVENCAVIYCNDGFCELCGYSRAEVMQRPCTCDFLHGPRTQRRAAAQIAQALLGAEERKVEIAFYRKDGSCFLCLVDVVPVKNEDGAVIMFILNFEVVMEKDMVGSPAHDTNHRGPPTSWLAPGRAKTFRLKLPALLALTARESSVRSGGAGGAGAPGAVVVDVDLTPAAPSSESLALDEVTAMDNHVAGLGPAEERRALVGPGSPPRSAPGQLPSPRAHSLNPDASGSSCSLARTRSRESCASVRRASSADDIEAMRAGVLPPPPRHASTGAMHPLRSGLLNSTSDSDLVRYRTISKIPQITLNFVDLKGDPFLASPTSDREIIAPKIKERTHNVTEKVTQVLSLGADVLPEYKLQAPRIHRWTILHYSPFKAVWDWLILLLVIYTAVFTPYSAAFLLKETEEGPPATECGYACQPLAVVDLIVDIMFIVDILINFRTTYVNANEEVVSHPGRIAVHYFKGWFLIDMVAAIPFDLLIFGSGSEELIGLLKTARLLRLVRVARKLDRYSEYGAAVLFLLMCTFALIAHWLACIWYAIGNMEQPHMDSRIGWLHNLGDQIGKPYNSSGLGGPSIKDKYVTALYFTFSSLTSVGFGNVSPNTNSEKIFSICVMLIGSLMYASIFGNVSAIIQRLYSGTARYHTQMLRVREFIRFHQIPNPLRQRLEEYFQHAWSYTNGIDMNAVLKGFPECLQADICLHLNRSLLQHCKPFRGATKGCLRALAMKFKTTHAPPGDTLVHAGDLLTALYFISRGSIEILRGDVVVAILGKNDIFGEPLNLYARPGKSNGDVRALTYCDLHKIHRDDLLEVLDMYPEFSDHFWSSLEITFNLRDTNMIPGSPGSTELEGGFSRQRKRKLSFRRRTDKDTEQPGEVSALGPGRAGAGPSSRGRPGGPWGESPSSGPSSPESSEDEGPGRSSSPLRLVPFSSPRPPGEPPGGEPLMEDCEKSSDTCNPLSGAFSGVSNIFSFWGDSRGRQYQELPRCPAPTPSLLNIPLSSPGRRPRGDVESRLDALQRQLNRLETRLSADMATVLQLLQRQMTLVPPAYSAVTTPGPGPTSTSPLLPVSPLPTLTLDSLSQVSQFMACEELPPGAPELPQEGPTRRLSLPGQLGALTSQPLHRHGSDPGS

Consider `NS(=O)(=O)Oc1ccc2c3c(c(=O)oc2c1)CCCCC3` [BN83495, Sulphamic acid, 6,7,8,9,10,11-hexahydro-6-oxobenzo[b]cyclohepta[d]pyran-3-yl ester], for which the “STS inhibition in rodents” value in the data set with STS [1] (in vivo) is on record as “potent STS inhibitor”. Besides, the “patients with more than 90% STS inhibition in tumour tissue” value is given as 3 out of 4 at STS [2] (5 mg dose) and “all 3” at STS [2] (20 mg dose, patients in whom it was measured). The “inhibition of STS activity in peripheral blood lymphocytes” value at STS [2] (24 hours after dosing on Day 5, both dose groups (5 mg, 20 mg daily)) was “more than 90%”. For the same compound, the “plasma exposure versus dose” value in data set [3] (6-month repeat dose rat toxicology studies, Day 1) was “proportional to dose”. For the same compound, in data set [3] (setting [18]), the “bone findings (femur, tibia and sternum)” value is reported as “partially reversible osteoid deposition at all treated dose-levels”. For the same compound, the liver findings entry is “reversible hepatocellular vacuolation in all treated groups” in data set [3] (setting [18]); “hepatocellular vacuolation in both sexes at 50 mg/kg/day and in females at 250 and 1000 mg/kg/day” in [7]. The “no observed adverse effect level (NOAEL)” value is reported as 50 mg/kg/day in data set [3] (females) and 200 mg/kg/day in data set [3] (males). For the same compound, the “adverse effects in single dose oral toxicity study” value in data set [4] and in data set [11] was “did not show any adverse effects” throughout. For the same compound, the “mean maximum plasma exposure relative to mean steady state plasma AUC in female patients” value in data set [5] worked out at 62 fold. Also, in data set [5], the “mean maximum plasma exposure relative to mean steady state plasma Cmax in female patients” value is listed as 103 fold. The tolerability result in data set [6] (doses 1 mg up to 80 mg) is recorded as “well tolerated up to a dose of 40 mg”; in data set [12] (both tested doses (5 mg, 20 mg)), “well tolerated”. For the same compound, the “drug-related adverse events, Grade 3” value in [6] (observed in 2 patients) is on record as 4. Also, in data set [6] (preliminary review of ECG data), the “effect on ECG parameters” value is given as “does not have an effect on ECG parameters”. Besides, in data set [6] (three higher dose groups), the “patients with stable disease for more than 6 months” value is recorded as “Four”. In data set [6] (up to a dose of 40 mg), the dose limiting toxicity result is “no dose limiting toxicity was observed”. Moreover, the “action potential duration (APD)” value in the data set on isolated Purkinje fibres is reported as “increased action potential duration”. Besides, the adrenal findings result in data set [7] is recorded as “adrenal cortical cell hypertrophy was seen in all treated animal groups”. Further, the kidney findings entry in data set [7] was “flattened tubular epithelium in one high dose animal/sex”. At hERG current, the IC50 is 13 µM. Besides, the absorption result in data set [8] (non-clinical studies) was “rapid absorption”. For the same compound, in [8] (preclinical models, by biotransformation), the elimination of radioactivity entry was “mainly via urine”. Besides, the distribution result in data set [8] (rats, primarily in blood and related organs, intestine, liver and kidneys) is “widely distributed”. Also, in data set [8] (uptake and retention related to carbonic anhydrase II enzyme), the erythrocyte uptake result is “sequestered in erythrocytes”. In addition, the “growth of mammary tumours stimulated by estrone sulphate (E1S)” value in data set [9] is given as “blocked the ability of estrone sulphate (E1S) to stimulate the growth”. Further, the “exposure (AUC) in rats relative to mean AUC in female patients” value in data set [10] (female rats) is listed as 14 fold; in [10] (male rats) it was 31 fold. Moreover, the “best response: stable disease” value in [12] (14 patients, 5 mg or 20 mg) is 4 patients. For the same compound, in data set [12] (Day 5 assessment), the “serum concentrations of oestradiol, androstenediol and testosterone” value was “significant decreases”. In addition, the “dose proportionality of Cmax, AUC and mean plasma clearance” value in data set [12] (patients, 5 mg and 20 mg) is given as “non dose proportional pharmacokinetics”. The “serum DHEA concentration” value in data set [12] (patients, 5 mg or 20 mg) was “significant decreases”. The protein binding result in [13] is reported as “highly protein bound”. Besides, the “potential clinically significant induction/inhibition of a CYP450 isoenzyme” value at CYP2C19 is on record as “inhibition of CYP2C19”. Moreover, the “mean steady state plasma AUC” value in data set [14] was 1293 ng·h/mL. The “mean steady state plasma Cmax” value in data set [14] was 159 ng/mL. In data set [15] (at both doses (150 and 400 mg/kg/day)), the haemodynamic effects entry is “transient hypotension and reflex tachycardia”. In addition, the ECG changes result in [15] (oral 150 and 400 mg/kg/day for seven consecutive days) is “did not induce any clinically relevant ECG changes”. For the same compound, in data set [16], the “effect on behaviour or respiration” value is recorded as “no effect on behaviour or respiration”. Moreover, the “inhibition of STS in peripheral blood mononuclear cells” value on STS [17] is 95%.
With `CCCN1C(=O)CC2C3CCc4cc(OS(N)(=O)=O)ccc4C3CC[C@]2(C)C1=O` (some centres unmarked) [STX213], in the data set on STS [1] (rodents), the “STS inhibition in rodents” value is “effectively inhibit STS activity”.

The term IC50 denotes the concentration that gives 50% inhibition.

These data come from US20110190244A1, “METHOD OF TREATMENT OF EGFR INHIBITOR TOXICITY” (priority 2010, published 2011).
